In patent US20100126880A1 (priority 2006, published 2010):

Test system: dsDNA
Excerpt: Intercalation properties of EDOT-ND-Os were further studied by competitive displacement assay.

In the case of “N[3-(imidazol-1-yl)propyl]-N′-[8-((2,3-dihydrothieno[3,4-b][1,4]dioxin-3-yl)methoxy)-3,6-dioxaoctyl]-1,4,5,8-naphthalenetetracarboxydiimide complex with Os(bpy)2Cl2 [EDOT-ND-Os]”, the binding constant is reported as 8×10^4.
